Experimental data: patent publication EP0497314A1, “Use of azapirones in attention deficit hyperactivity disorder” (Bristol-Myers Squibb Company, priority 1991, dated 1992)
Counter-ions that a name gives are not always drawn. Marks after values point to notes of the source that are not given here.

How the values were obtained:
[1] = tested on: rabbit cortex; experiment: Quantitative EEG, rabbit cortex, intravenous administration; format: in vivo, rabbits; settings: for group percent change in electrical energy from pre-drug control, Δ band / mean change ± S.E. in electrical energy from pre-drug control, Δ band: Δ = 0.5-3.5 Hz; for group percent change in electrical energy from pre-drug control, α band / mean change ± S.E. in electrical energy from pre-drug control, α band: α= 7-13 Hz; for group percent change in electrical energy from pre-drug control, β band / mean change ± S.E. in electrical energy from pre-drug control, β band: β= 13-25 Hz; for group percent change in electrical energy from pre-drug control, γ band / mean change ± S.E. in electrical energy from pre-drug control, γ band: γ= 25-40 Hz; for group percent change in electrical energy from pre-drug control, θ band / mean change ± S.E. in electrical energy from pre-drug control, θ band: θ= 3.5-7.0 Hz
How it was run: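 Restrained rabbits with cortical leads had EEG split into Δ, ϑ, α, β and γ bands and integrated over 1 h from the moment of i.v. injection, in saline, dosed as free base. Counts were compared with each animal's own pretreatment control by paired t-test (p≦0.05). Doses were reduced geometrically to a no-effect level.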

[2] = tested on: fronto-occipital cortex of the cat; experiment: Quantitative EEG, fronto-occipital cat cortex, subcutaneous administration; format: in vivo, cats; settings: for EEG profile: cat cortex; for group percent change in electrical energy from pre-drug control, Δ band / mean change ± S.E. in electrical energy from pre-drug control, Δ band / group percent change in electrical energy from pre-drug control, α band / mean change ± S.E. in electrical energy from pre-drug control, α band / group percent change in electrical energy from pre-drug control, β band / mean change ± S.E. in electrical energy from pre-drug control, β band / group percent change in electrical energy from pre-drug control, γ band / mean change ± S.E. in electrical energy from pre-drug control, γ band / group percent change in electrical energy from pre-drug control, θ band / mean change ± S.E. in electrical energy from pre-drug control, θ band: fronto-occipital cat cortex; for group percent change in electrical energy from pre-drug control, α band / mean change ± S.E. in electrical energy from pre-drug control, α band: α= 7-13 Hz; for group percent change in electrical energy from pre-drug control, β band / mean change ± S.E. in electrical energy from pre-drug control, β band: β= 13-25 Hz; for group percent change in electrical energy from pre-drug control, γ band / mean change ± S.E. in electrical energy from pre-drug control, γ band: γ= 25-40 Hz; for group percent change in electrical energy from pre-drug control, θ band / mean change ± S.E. in electrical energy from pre-drug control, θ band: θ= 3.5-7.0 Hz
How it was run: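 Adult female mongrel cats (n=6 per group) with implanted electrodes were recorded while held in restraining bags, with EEG filtered into Δ, ϑ, α, β and γ bands and integrated as energy counts. Drugs were given subcutaneously in saline, with doses calculated as free base, and recording started 30 min post-injection. Changes from each animal's pre-treatment control were tested by paired Student t-test (P≦0.05).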

[3] = tested on: attention deficit hyperactivity disorder; experiment: Treatment of children with attention deficit hyperactivity disorder (Examples 1 and 2); format: in vivo, child
Experimental: Buspirone is administered to a person, who has been identified by a clinician as having the symptoms associated with attention deficit hyperactivity disorder. During treatment, the child received […] of buspirone twice a day.
Buspirone is administered to a person, who has been identified by a clinician as having the symptoms associated with attention deficit hyperactivity disorder. During the treatment, the child received […] of buspirone three times a day.

[4] = tested on: evoked electrographic activity; settings: limited number of cats; John, et al, 1973; cited from earlier work
[5] = rabbit cortex, 0.25 mg/kg free base i.v.
[6] = rabbit cortex, 0.50 mg/kg free base i.v.
[7] = Δ = 0.05-35 Hz, 0.125 mg/kg free base s.c.
[8] = Δ = 0.05-35 Hz, 0.5 mg/kg free base s.c.
[9] = Δ = 0.5-3.5 Hz, 0.25 mg/kg free base s.c.
[10] = Δ = 0.5-3.5 Hz, 2.0 mg/kg free base s.c.
[11] = Δ = 0.5-3.5 Hz, 8.0 mg/kg free base s.c.
[12] = child with symptoms of attention deficit hyperactivity disorder, 5 mg/kg twice a day

O=C1CC2(CCCC2)CC(=O)N1CCCCN1CCN(c2ncccn2)CC1 [Buspirone HCl, buspirone hydrochloride]
minimal effective dose ([1]; Oryctolagus cuniculus, iv, rabbit cortex EEG, dose of free base, read-out: the minimum dose required to produce the EEG profile characteristic of that particular drug): 0.5 mg/kg | the no-effect dose ([1]; rabbit cortex EEG, dose of free base): 0.25† mg/kg, i.v. | EEG profile ([1]; rabbit cortex, i.v.): shares a component of stimulation similar to that of methylphenidate and dextroamphetamine | group percent change in electrical energy from pre-drug control, Δ band [1, 5]: 0% | mean change ± S.E. in electrical energy from pre-drug control, Δ band [1, 5]: -1 ± 18 instrument counts | group percent change in electrical energy from pre-drug control, Δ band [1, 6]: -34% | mean change ± S.E. in electrical energy from pre-drug control, Δ band [1, 6]: -114 ± 25 instrument counts | group percent change in electrical energy from pre-drug control, α band [1, 5]: -1% | mean change ± S.E. in electrical energy from pre-drug control, α band [1, 5]: -2 ± 12 instrument counts | group percent change in electrical energy from pre-drug control, α band [1, 6]: -32% | mean change ± S.E. in electrical energy from pre-drug control, α band [1, 6]: -70 ± 13 instrument counts | group percent change in electrical energy from pre-drug control, β band [1, 5]: -4% | mean change ± S.E. in electrical energy from pre-drug control, β band [1, 5]: -5 ± 7 instrument counts | group percent change in electrical energy from pre-drug control, β band [1, 6]: -28% | mean change ± S.E. in electrical energy from pre-drug control, β band [1, 6]: -47 ± 10 instrument counts | group percent change in electrical energy from pre-drug control, γ band [1, 5]: -5% | mean change ± S.E. in electrical energy from pre-drug control, γ band [1, 5]: -5 ± 2 instrument counts | group percent change in electrical energy from pre-drug control, γ band [1, 6]: -14% | mean change ± S.E. in electrical energy from pre-drug control, γ band [1, 6]: -17 ± 3 instrument counts | group percent change in electrical energy from pre-drug control, θ band [1, 5]: -5% | mean change ± S.E. in electrical energy from pre-drug control, θ band [1, 5]: -10 ± 14 instrument counts | group percent change in electrical energy from pre-drug control, θ band [1, 6]: -35% | mean change ± S.E. in electrical energy from pre-drug control, θ band [1, 6]: -86 ± 11 instrument counts | minimal effective dose ([2]; Felis catus, sc, fronto-occipital cat cortex EEG, dose of free base, read-out: the minimum dose required to produce the EEG profile characteristic of that particular drug): 0.25 mg/kg | doses required to produce the combined antipsychotic-stimulant EEG profile ([2]; cat cortex EEG, s.c.): at least twice that of thioridazine and chlorpromazine | EEG profile ([2]; 8.0 mg/kg dose, s.c.): causes an increase in electrical "power" in the lowest frequency bands | EEG profile ([2]; higher dose (2.0 and 8.0 mg/kg, s.c.)): elicit a profile which deviates from that produced by the stimulants | the no-effect dose ([2]; fronto-occipital cat cortex EEG, dose of free base): 0.125† mg/kg, s.c. | group percent change in electrical energy from pre-drug control, Δ band [2, 7]: -21% | mean change ± S.E. in electrical energy from pre-drug control, Δ band [2, 7]: -46 ± 27 instrument counts | group percent change in electrical energy from pre-drug control, Δ band [2, 8]: -14% | mean change ± S.E. in electrical energy from pre-drug control, Δ band [2, 8]: -31 ± 18 instrument counts | group percent change in electrical energy from pre-drug control, Δ band [2, 9]: +5% | mean change ± S.E. in electrical energy from pre-drug control, Δ band [2, 9]: +10 ± 8 instrument counts | group percent change in electrical energy from pre-drug control, Δ band [2, 10]: +15% | mean change ± S.E. in electrical energy from pre-drug control, Δ band [2, 10]: +30 ± 22 instrument counts | group percent change in electrical energy from pre-drug control, Δ band [2, 11]: +55% | mean change ± S.E. in electrical energy from pre-drug control, Δ band [2, 11]: +89 ± 29 instrument counts | group percent change in electrical energy from pre-drug control, α band ([2]; 0.125 mg/kg free base s.c.): -18% | mean change ± S.E. in electrical energy from pre-drug control, α band ([2]; 0.125 mg/kg free base s.c.): -23 ± 12 instrument counts | group percent change in electrical energy from pre-drug control, α band ([2]; 0.25 mg/kg free base s.c.): -26% | mean change ± S.E. in electrical energy from pre-drug control, α band ([2]; 0.25 mg/kg free base s.c.): -35 ± 6 instrument counts | group percent change in electrical energy from pre-drug control, α band ([2]; 0.5 mg/kg free base s.c.): -39% | mean change ± S.E. in electrical energy from pre-drug control, α band ([2]; 0.5 mg/kg free base s.c.): -47 ± 12 instrument counts | group percent change in electrical energy from pre-drug control, α band ([2]; 2.0 mg/kg free base s.c.): -15% | mean change ± S.E. in electrical energy from pre-drug control, α band ([2]; 2.0 mg/kg free base s.c.): -20 ± 14 instrument counts | group percent change in electrical energy from pre-drug control, α band ([2]; 8.0 mg/kg free base s.c.): -6% | mean change ± S.E. in electrical energy from pre-drug control, α band ([2]; 8.0 mg/kg free base s.c.): -5 ± 14 instrument counts | group percent change in electrical energy from pre-drug control, β band ([2]; 0.125 mg/kg free base s.c.): -6% | mean change ± S.E. in electrical energy from pre-drug control, β band ([2]; 0.125 mg/kg free base s.c.): -6 ± 4 instrument counts | group percent change in electrical energy from pre-drug control, β band ([2]; 0.25 mg/kg free base s.c.): -17% | mean change ± S.E. in electrical energy from pre-drug control, β band ([2]; 0.25 mg/kg free base s.c.): -24 ± 5 instrument counts | group percent change in electrical energy from pre-drug control, β band ([2]; 0.5 mg/kg free base s.c.): -23% | mean change ± S.E. in electrical energy from pre-drug control, β band ([2]; 0.5 mg/kg free base s.c.): -24 ± 3 instrument counts | group percent change in electrical energy from pre-drug control, β band ([2]; 2.0 mg/kg free base s.c.): -24% | mean change ± S.E. in electrical energy from pre-drug control, β band ([2]; 2.0 mg/kg free base s.c.): -33 ± 8 instrument counts | group percent change in electrical energy from pre-drug control, β band ([2]; 8.0 mg/kg free base s.c.): -21% | mean change ± S.E. in electrical energy from pre-drug control, β band ([2]; 8.0 mg/kg free base s.c.): -22 ± 7 instrument counts | group percent change in electrical energy from pre-drug control, γ band ([2]; 0.125 mg/kg free base s.c.): +5% | mean change ± S.E. in electrical energy from pre-drug control, γ band ([2]; 0.125 mg/kg free base s.c.): +4 ± 3 instrument counts | group percent change in electrical energy from pre-drug control, γ band ([2]; 0.25 mg/kg free base s.c.): 0% | mean change ± S.E. in electrical energy from pre-drug control, γ band ([2]; 0.25 mg/kg free base s.c.): -1 ± 3 instrument counts | group percent change in electrical energy from pre-drug control, γ band ([2]; 0.5 mg/kg free base s.c.): -5% | mean change ± S.E. in electrical energy from pre-drug control, γ band ([2]; 0.5 mg/kg free base s.c.): -4 ± 4 instrument counts | group percent change in electrical energy from pre-drug control, γ band ([2]; 2.0 mg/kg free base s.c.): -9% | mean change ± S.E. in electrical energy from pre-drug control, γ band ([2]; 2.0 mg/kg free base s.c.): -10 ± 3 instrument counts | group percent change in electrical energy from pre-drug control, γ band ([2]; 8.0 mg/kg free base s.c.): -3% | mean change ± S.E. in electrical energy from pre-drug control, γ band ([2]; 8.0 mg/kg free base s.c.): -2 ± 3 instrument counts | group percent change in electrical energy from pre-drug control, θ band ([2]; 0.125 mg/kg free base s.c.): -22% | mean change ± S.E. in electrical energy from pre-drug control, θ band ([2]; 0.125 mg/kg free base s.c.): -32 ± 16 instrument counts | group percent change in electrical energy from pre-drug control, θ band ([2]; 0.25 mg/kg free base s.c.): -16% | mean change ± S.E. in electrical energy from pre-drug control, θ band ([2]; 0.25 mg/kg free base s.c.): -21 ± 6 instrument counts | group percent change in electrical energy from pre-drug control, θ band ([2]; 0.5 mg/kg free base s.c.): -32% | mean change ± S.E. in electrical energy from pre-drug control, θ band ([2]; 0.5 mg/kg free base s.c.): -46 ± 14 instrument counts | group percent change in electrical energy from pre-drug control, θ band ([2]; 2.0 mg/kg free base s.c.): +13% | mean change ± S.E. in electrical energy from pre-drug control, θ band ([2]; 2.0 mg/kg free base s.c.): +17 ± 15 instrument counts | group percent change in electrical energy from pre-drug control, θ band ([2]; 8.0 mg/kg free base s.c.): +34% | mean change ± S.E. in electrical energy from pre-drug control, θ band ([2]; 8.0 mg/kg free base s.c.): +35 ± 15 instrument counts | clinical response during and after treatment [3, 12]: spectacular and very fast improvement | sleep disturbance [3, 12]: no sleep disturbance | clinical response during and after treatment ([3]; with symptoms of attention deficit hyperactivity disorder, 5 mg/kg three times a day): excellent response | effect on evoked electrographic activity [4]: possessed properties similar to both chlorpromazine and methamphetamine
